This experiment concerns the target glucosylceramide synthase (GCS) enzyme in Golgi preparations from human A375 malignant melanoma skin cells (Homo sapiens (Human), UniProt Q16739). Description: UDP-Glo glucosylceramide synthase biochemical assay. As to conditions: 1.5 μg crude golgi preparation; C6 ceramide and UDP-glucose at 2×Km; 20 h incubation at room temperature; luminescence. From the text: UDP-Glo™ Glucosylceramide Synthase Biochemical Assay
A UDP-Glo™ glucosylceramide synthase biochemical assay was utilized to evaluate the effect of test compounds on the activity of endogenous levels of GCS enzyme contained within Golgi preparations isolated from human A375 malignant melanoma skin cells. The UDP-Glo™ glucosylceramide synthase assay uses UDP-Glucose as a nucleotide-glycosyl donor and ceramide as substrate acceptor molecules. In the reaction, glucosylceramide synthase (GCS) transfers glucose from UDP-Glucose to ceramide. Glucosylceramide and UDP are released as products.
Using Promega's UDP-Glo™ Glycosyltransferase assay kit (Promega Corporation, Madison, WI, USA (Promega)), GCS activity was indirectly measured by detecting the amount of UDP produced. An aliquot of GCS enzyme (1.5 μg crude golgi preparation, total protein) and titrated test compound were aliquoted to each well and incubated for 30 minutes at room temperature. Substrate mixture was prepared by mixing C6 ceramide (Avanti Polar Lipids, Alabaster, AL USA (Avanti)) (micelles prepared at 0.6 mM in 0.6 mM DOPC) and UDP-glucose (20 μM; Promega), at concentrations equivalent to 2×Km, in assay buffer (25 mM HEPES (pH 7.5), 50 mM KCl, 5 mM MgCl2). An equivalent volume of substrate mixture was then added to each well. Following a 20 h incubation at room temperature to allow for GCS turnover of substrate, an equal volume of UDP detection reagent (Promega) was added to each well and incubated for an additional 75 minutes at room temperature to simultaneously convert the accumulated UDP product into ATP and generate light in a luciferase reaction. The generated light was detected using a luminometer. […] luminescence values (RLUs) were normalized to mean “min” and “max” effects, as determined on each plate. “Min” was defined as the mean of the values of the wells treated with vehicle (DMSO) and which represent 0% inhibition; “max” was defined as the mean of the values of the wells treated with a reference inhibitor and which represent the 100% effect. Values for % Emax and EC50 were determined by best-fitting the normalized data to a curve in Activity Base along a four-parameter logistic nonlinear regression (4PL) model (based on the Levenberg-Marquardt algorithm and defined by the equation below): […]
where: n is 4PMin (bottom of the curve); m is 4PMax (top of the curve); i is IP (inflection point of curve); andp is slope. See Levenberg, K., “A Method for the Solution of Certain Problems in Least Squares”, Quart. Appl. Math. 2, (1944), pp 164-168 and Marquardt, D., “An Algorithm for Least Squares Estimation on Nonlinear Parameters”, SIAM J. Appl. Math. 11, (1963) pp 431-441.
Sequence of glucosylceramide synthase (GCS) enzyme in Golgi preparations from human A375 malignant melanoma skin cells (Q16739 whole entry): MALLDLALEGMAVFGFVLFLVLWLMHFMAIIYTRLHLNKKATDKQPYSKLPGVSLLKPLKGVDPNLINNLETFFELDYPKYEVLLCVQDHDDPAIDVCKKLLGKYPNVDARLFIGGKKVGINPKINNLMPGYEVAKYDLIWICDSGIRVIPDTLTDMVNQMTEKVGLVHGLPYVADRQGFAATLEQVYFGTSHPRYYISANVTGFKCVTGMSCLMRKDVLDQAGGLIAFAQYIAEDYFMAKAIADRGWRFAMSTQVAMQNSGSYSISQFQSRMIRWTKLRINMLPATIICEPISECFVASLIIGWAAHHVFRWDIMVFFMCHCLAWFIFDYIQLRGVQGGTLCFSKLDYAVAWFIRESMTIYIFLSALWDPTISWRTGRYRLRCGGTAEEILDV
With `O=C(N1CCN2CCC1CC2)n1nc(C23CCCC2C3)c2c1CCC2` (single isomer, unassigned) [Compound 9, R or S-(3-(bicyclo[3.1.0]hexan-1-yl)-5,6-dihydrocyclopenta[c]pyrazol-1(4H)-yl)(1,4-diazabicyclo[3.2.2]nonan-4-yl)methanone], the EC50 came out at 2.4 nM.

With `O=C(N1CCN2CCC1CC2)n1nc(-c2ccc(F)cc2)c2c1C1CC1CC2` (single isomer, unassigned) [Compound 10], the concentration for a half-maximal effect (EC50) came to 0.3 nM.

`O=C(N1CCN2CCC1CC2)n1nc(-c2ccc(F)cc2)c2c1CC1CC21` (single isomer, unassigned) [Compound 15, (R,R) or (S,S)--(1,4-diazabicyclo[3.2.2]nonan-4-yl)(3-(4-fluorophenyl)-3b,4,4a,5-tetrahydro-1H-cyclopropa[3,4]cyclopenta[1,2-c]pyrazol-1-yl)methanone] gave an EC50 of 0.1 nM.

In turn, `CC1CCc2c(-c3ccc(F)cc3)nn(C(=O)N3CCN4CCC3CC4)c21` (single isomer, unassigned) [Compound 16, R or S-(1,4-diazabicyclo[3.2.2]nonan-4-yl)(3-(4-fluorophenyl)-6-methyl-5,6-dihydrocyclopenta[c]pyrazol-1(4H)-yl)methanone] gave an EC50 of 0.4 nM.

In the case of `O=C(N1CCN2CCC1CC2)n1nc(-c2ccc(F)cc2)c2c1COCC2` [Compound 1, 1,4-diazabicyclo[3.2.2]nonan-4-yl(3-(4-fluorophenyl)-4,5-dihydropyrano[3,4-c]pyrazol-1(7H)-yl)methanone], the EC50 is 5.1 nM.

Regarding `O=C(N1CCN2CCC1CC2)n1nc(-c2ccc(OC(F)F)c(Cl)c2)c2c1COCC2` [Compound 2, 1,4-diazabicyclo[3.2.2]nonan-4-yl(3-(3-chloro-4-(difluoromethoxy)phenyl)-4,5-dihydropyrano[3,4-c]pyrazol-1(7H)-yl)methanone], it took 2.9 nM to reach a half-maximal effect (EC50).

In turn, `COc1ccc(-c2nn(C(=O)N3CCN4CCC3CC4)c3c2CCOC3)cc1Cl` [Compound 3, 1,4-diazabicyclo[3.2.2]nonan-4-yl(3-(3-chloro-4-methoxyphenyl)-4,5-dihydropyrano[3,4-c]pyrazol-1(7H)-yl)methanone] gave an EC50 of 1.4 nM.

In turn, `COc1ccc(-c2nn(C(=O)N3CCN4CCC3CC4)c3c2CCC3)cc1` [Compound 4, 1,4-diazabicyclo[3.2.2]nonan-4-yl-[3-(4-methoxyphenyl)-5,6-dihydro-4H-cyclopenta[c]pyrazol-1-yl]methanone] yielded a concentration giving a half-maximal response (EC50) of 0.2 nM.

`O=C(N1CCN2CCC1CC2)n1nc(-c2ccc(OC(F)F)cc2)c2c1CCC2` [Compound 5, 1,4-diazabicyclo[3.2.2]nonan-4-yl-[3-[4-(difluoromethoxy)phenyl]-5,6-dihydro-4H-cyclopenta[c]pyrazol-1-yl]methanone] returned an EC50 of 0.3 nM.

On to `COc1ncc(-c2nn(C(=O)N3CCN4CCC3CC4)c3c2CCC3)cc1Cl` [Compound 6, [3-(5-chloro-6-methoxy-3-pyridyl)-5,6-dihydro-4H-cyclopenta[c]pyrazol-1-yl]-(1,4-diazabicyclo[3.2.2]nonan-4-yl)methanone], for which the concentration giving a half-maximal response (EC50) worked out at 0.4 nM.

In turn, `O=C(N1CCN2CCC1CC2)n1nc(-c2ccc(F)c(Cl)c2)c2c1COCC2` [Compound 7, [3-(3-chloro-4-fluoro-phenyl)-5,7-dihydro-4H-pyrano[3,4-c]pyrazol-1-yl]-(1,4-diazabicyclo[3.2.2]nonan-4-yl)methanone] displayed an EC50 of 1 nM.

Compound `COc1ncc(-c2nn(C(=O)N3CCN4CCC3CC4)c3c2C[C@@H]2C[C@H]32)cc1Cl` [Compound 8, (1,4-diazabicyclo[3.2.2]nonan-4-yl)((4aS,5aS)-3-(5-chloro-6-methoxypyridin-3-yl)-4,4a,5,5a-tetrahydro-1H-cyclopropa[4,5]cyclopenta[1,2-c]pyrazol-1-yl)methanone] yielded a concentration for a half-maximal effect (EC50) of 0.1 nM.

Values taken from patent US20250026762A1, “FUSED PYRAZOLE UREA ANALOGS AS GLUCOSYLCERAMIDE SYNTHASE INHIBITORS” (Merck Sharp & Dohme LLC, priority 2021, published 2025).
